{"source": "patent US9765061B2", "about": "“Trail enhancers for the selective killing of cancer cells” (The Scripps Research Institute, priority 2013, dated 2017)", "key": {"[1]": {"tested_on": "cancer and normal cells", "assay": "XTT-based viability of cancer and normal cells grown 18 h (FIG. 12)", "type": "cell-based", "conditions": "TRAIL alone or the same doses of C12 without TRAIL", "method": "FIG. 12. (C12) promotes the TRAIL-mediated killing of cancer cells, a), c) Western blot analysis of PARP cleavage in cancer or normal cells treated for 3 h with TRAIL, (C12) or a combination of both, as indicated, b), d) XTT-based assay monitoring the viability of cancer and normal cells grown for 18 h in media containing TRAIL and the indicated doses of (C12). Cell survival was ˜100% in control samples (untreated cells) as well as in samples incubated with TRAIL alone or the same doses of (C12) without TRAIL.\nCancer and normal cell culture. Lung cancer cell line A549 and colon cancer cell line HT29 were purchased from ATCC. Breast cancer cell line MDA-MB-468 was received from J. C. Reed (The Burnham Institute, La Jolla, Calif.). […]\n(§1) Cytotoxicity was determined by using the XTT-based toxicology assay kit (Sigma, St. Louis, Miss.) in accordance with the manufacturer's instructions. For some experiments, to confirm the apoptotic nature of toxicity, cells were analyzed using protocols and instructions of the Annexin V-FITC apoptosis detection kit (Biovision, Mountain View, Calif.). In addition, caspase 3, 8 and 9 activities were determined by colorimetric assays (R&D System), and the data are expressed as fold increases compared to the values of untreated or control-treated cells (n=5)."}, "[2]": {"tested_on": "bone marrow-derived macrophages (BMDM)", "assay": "Responses of bone marrow-derived macrophages to AHLs (toxicity, Western blot)", "type": "cell-based, mouse", "method": "FIG. 13. AHL-mediated inhibition of inflammation-induced NF-κB signaling is sufficient for rendering tumors susceptible to TRAIL-induced apoptosis. a) Western blot analysis of PARP cleavage in cancer cells stimulated for 3 h with TRAIL or its combination with different AHLs as indicated, b) Western blot analysis of PARP cleavage as well as phosphorylated forms of eIF2α and p38 in extracts from bone marrow-derived macrophages (BMDM) stimulated with (C12) or (3-N2), i.e., (S)-(3-N2), as indicated, c) Western blot analysis of PARP cleavage and temporal profiles of IκBα expression in BMDM extracts prepared after treatment with LPS or its combination with (C12) or (3-N2). d) Inhibitory effect of (C12) and its derivatives on LPS-induced TNF production in BMDM. e) Lung cancer cells were exposed to (3-N2) (10 μM), TRAIL (0.5 ng/ml), TNF (20 ng/ml) or their combinations as indicated. After 2 h, cell lysates were prepared and analyzed by Western blot for PARP cleavage, IκBα and actin.\nMice, bone marrow-derived macrophages and other cell culture, C57BL/6 mice were purchased from the Jackson Laboratory (Bar Harbor, Me.). Bone marrow-derived macrophages (BMDM) and murine embryonic fibroblasts (MEF) were prepared by using standard protocols that were approved by the TSRI Animal Care and Use Committee. L929/NCTC clone 929 (connective tissue, mouse) cell lines were purchased from ATCC (Manassas, Va.). MEFs and L929 cell line were maintained in GM (see above). BMDM were cultured in 70% GM and 30% L929 conditioned medium. In general, cells (˜60-70% confluence) were incubated in fresh medium for 12-14 h before stimulation.\nAntibodies and Western blot analysis. Anti-eIF2α, phospho-eIF2α[…](p-eIF2α), p38, p-p38 (Thr180/Tyr132), p-RelA (Ser536), p-I κB ? 32/36), PARP 20 antibodies were purchased from Cell Signaling; anti-RelA, I κB α, IκBβ were from Santa Cruz Biotechnology. Cellular extracts were prepared and analyzed by Western blot assay as previously described.^E3\nCell stimulation. In all experiments, BMDM were stimulated with LPS (100 ng/ml), AHL (10-25 μM; usually BMDM and primary macrophages were stimulated by 25 μM of C12) or their combination as indicated in the figure legends. If not indicated, cancer and normal cells were stimulated with 40 ng/ml of TNFα, 20 ng/ml TRAIL and 10 μM (in case of cancer cells) or 25 μM (in case of normal cells) of AHL."}, "[3]": {"tested_on": "primary human hepatocytes", "assay": "Viability and apoptosis of primary human hepatocytes from normal donors", "type": "cell-based", "conditions": "hepatocytes from normal donors", "method": "FIG. 8: Safety and pro-apoptotic. activity of (C12). Cells were incubated with TRAIL, (C12), […] (Bor) or a combination of TRAIL and (C12) or Bor as indicated, and cell viability (top panels) or the cleavage of PARP (bottom panels) was determined. (A) Lung cancer cell line A549. (B) Primary human hepatocytes from normal donor.\nTherefore, to assess a potential utility of C12 for anti-cancer therapy, we compared the effects of these two compounds—(C12) and bartezomid (Bor)—on TRAIL-mediated apoptosis in cancerous A549 cells and primary human hepatocytes.\nCancer and normal cell culture. Lung cancer cell line A549 and colon cancer cell line HT29 were purchased from ATCC. Breast cancer cell line MDA-MB-468 was received from J. C. Reed (The Burnham Institute, La Jolla, Calif.). Cell lines were maintained in growth medium (GM): DMEM medium (4.5 g/l glucose) supplemented with 10% FBS (HyClone, Logan, Utah), L-glutamine, penicillin/streptomycin and nonessential ammo acids (Invitrogen, Carlsbad, Calif.). Normal human bronchial epithelial (NHBE) cells and normal human mammary epithelial (NHME) cells were obtained from Cambrex (East Rutherford, N.J.) and cultured as recommended by the manufacturer. Normal human colon smooth muscle cells were obtained from ScienCell Research Lab (San Diego, Calif.) and cultured as recommended by the manufacturer. Primary cultures of human hepatocytes (freshly plated; not cryopreserved) and culture medium were obtained from Celsis In Vitro Technologies (Baltimore, Md.). Upon receipt of the cells, the medium was gently aspirated from each well and replenished with InVitroGRO HI medium supplemented with Torpedo Antibiotic Mix (Celsis), and the plates were kept in a 5% CO2, at 37° C. in an incubator at saturating humidity. After 2-4 h, cells were stimulated as described in the text and FIG. legends.\nas §1"}, "[4]": {"tested_on": "MCF7 cells", "assay": "PARP cleavage in breast cancer MCF7 cells (Vector, Bcl-2, CLARP)", "type": "cell-based, human", "conditions": "control MCF7, MCF7/Bcl-2 and MCF7/CLARP, FIG. 3B", "method": "FIG. 3: Sensitivity of cancerous and non-cancerous cells to apoptosis induced by TNF, C12 or a combination of C12 and TNF. Cells were incubated with TNF, (C12) or a combination of TNF and (C12) as indicated, and the cleavage of PARP (an apoptotic marker) was determined by Western blot. (A and B) Breast cancer MCF-7 cells transfected with control vector (Vector) and vector expressing Bcl-2 or CLARP. (C) HeLa cell line. (D) Normal human bronchial epithelial cells (NHBE).\nTo further test this hypothesis, we compared sensitivity of breast cancer cell line MCF7 to apoptosis induced by TNF, C12 or their combination. In these experiments we used a control variant of MCF7 (Vector) as well as MCF7 cells stably expressing negative regulators of apoptosis, such as Bcl-2 and CLARP; Bcl-2 is an inhibitor of the intrinsic apoptotic pathway, whereas CLARP inhibits receptor-dependent apoptotic signaling, also called the extrinsic apoptotic pathway. The cells were incubated with TNF, C12 or their combination, and protein extracts were analyzed by Western blot for the cleavage of PARP, a biochemical marker indicative of apoptosis ^26.\nAntibodies and Western blot analysis. Anti-eIF2α, phospho-eIF2α[…](p-eIF2α), p38, p-p38 (Thr180/Tyr132), p-RelA (Ser536), p-I κB ? […] Cellular extracts were prepared and analyzed by Western blot assay as previously described.^E3"}}, "data": [{"smiles": "CCCCCCCCCC(=O)CC(=O)N[C@H]1CCOC1=O", "note": "[Compound 1, N-(3-oxo-dodecanoyl) homoserine lactone]", "values": [{"measurement": "Cell survival", "setting": "[1]", "value": "~100", "unit": "%"}, {"measurement": "eIF2α phosphorylation in macrophages", "setting": "[2]; Western blot, FIG. 13b", "value": "induced eIF2α phosphorylation in a similar fashion"}, {"measurement": "blocking LPS-induced re-synthesis of IκBα", "setting": "[2]; macrophages activated by LPS, FIG. 13c", "value": "equally effective"}, {"measurement": "toxicity to human hepatocytes, compound alone or in combination with TRAIL", "setting": "[3]", "value": "practically healthy and intact"}, {"measurement": "sensitivity to apoptosis (PARP cleavage), compound alone", "setting": "[4]", "value": "showed sensitivity"}]}]}
